Test results as given in patent publication US20250100962A1 (CITY OF HOPE, priority 2023, published 2025).
Entries after “also recorded” stand apart in the source; their conditions may differ.

Assays:
[1] = tested on: mdx mouse primary myoblasts; test: MTT cell viability of mdx mouse primary myoblasts; type: cell-based
Protocol: Cells were seeded at 5×10^4 concentration in 100 μl culture medium into 96 wells flat bottom microplates and treated after 24 h with desired compounds and controls. After desired incubation periods, cells were treated with MTT labeling reagent 1× (MTT (3-[4,5-dimethylthiazol-2-yl]-2,5-diphenyltetrazolium bromide labeling reagent, 5 mg/ml in PBS, Roche Cell Proliferation Kit I (MTT)) and Solubilization buffer 1× (10% SDS in 0.01 M HCl and left overnight. Next morning absorbance was measured at 570 nm and 700 nm on microplate (ELISA) reader (TECAN infinite M200pro). The mean and standard deviation values were calculated for each well and graphed.
FIGS. 41A-41D. Effect of Chlorhexidine (CHX) and CM002 treatment on viability of mouse and human myoblasts. To determine potential toxic effects of CHX and CM002, we treated mouse C2C12 myoblast cell line with increasing concentrations from 0.2-5 μM for 48 hours and determined cell viability using the MTT assay (FIG. 41A). […] Considering the inflammatory milieus in dystrophic muscles, we further tested the tolerance of myoblasts to these molecules in the presence of inflammatory stimuli, a cytokine cocktail (CC) consisted of 10 ng/mL IL-1β, 100 ng/mL IFN-γ and 25 ng/mL of TNF-α (FIG. 41B). […] Lastly, human primary myoblasts derived from Duchene Muscular Dystrophy (DMD) patients were used to determine their tolerance to these compounds.

Wnt signaling activity = test: TOPFlash luciferase reporter assay (Example 3); type: cell-based; conditions: for TOPFlash reporter activity, Wnt-stimulated: Wnt3a media
Protocol: TOPFlash luciferase reporter assay. M50 Super 8×TOPFlash luciferase reporter containing Wnt-responsive TCF bindings sites was a gift from Randall Moon (Veeman, Slusarski, Kaykas et al., 2003) obtained from Addgene (Addgene plasmid #12456). Cells were seeded and grown overnight, and cell transfection was performed at 90% confluency. 24 hours following transfection, cells were treated using 10% Wnt3a conditioned media obtained from L Wnt-3A cell line (ATCC CRL-2647) to induce luciferase activity. Luciferase activity was assayed using Dual-Luciferase Reporter Assay Kit (Promega) in 96-well black plates. TOPFlash luciferase reporter luminescence was measured on microplate reader (TECAN infinite M200pro) and normalized to control FOPFlash activity, as previously described (Guo et al., 2012). The mean and standard deviation values were calculated for each well and graphed.

[2] = tested on: U2OS cells containing Per2::dLuc luciferase reporter; test: Real-time bioluminescence monitoring of Per2::Luciferase reporter in U2OS cells (LumiCycle); type: cell-based; conditions: for Modulatory Property: clock-modulatory classification
Protocol: U2OS cells or mouse fibroblasts (MF) containing a Per2-luciferase reporter (Yoo et al., 2004) were seeded at 4×10^5 concentration on 24 well plates and treated at 90% confluence with 1 ml 1×Fresh explant medium with desired compounds and controls. The seeding density was decided after trying several densities and choosing the one that after 24 h lead to 90% confluence. 1× Fresh explant medium was produced using 50% 2×DMEM buffer stock [DMEM powder (Gibco—Thermo Fisher CN: 12800-017), Sterile MilliQ water, pH7 1 M HEPES (Gibco—Thermo Fisher CN:15630080) and 7.5% Sodium Bicarbonate (Gibco—Thermo Fisher CN: 25080094)], 10% FBS (Cytiva), 37.9% Sterile MiliQ water, 1% PSG 100× (Gibco—Thermo Fisher CN: 10378016), 0.1% Sodium Hydroxixe (NaOH) 100 mM (Fishel Chemical CN: S318-500), 1% XenoLight D-Luciferin—Monopotassium Salt Bioluminiscent Substrate 100 mM (PerkinElmer CN: 122799). Treated cells were introduced to the LumiCycle96 (ActiMetrics) were they were cultured and Per2-luciferafe reporter luminescence was measured for 6 days. Raw and subtracted results for 5 days were exported and data was calculated as luminescence counts per second.

mdx mice = test: Direct intramuscular injection into Tibialis Anterior muscle of mdx mice; type: in vivo, mouse; conditions: for Evans Blue Dye (EBD) positive area (muscle damage): 150 ul of 2 uM daily for 3 days; for amount of satellite cells / satellite cell proliferation (EdU+/Pax7+ within Pax7+ pool): 150 μl of 2 μM daily for three days; for transcript levels of clock regulators and myogenic factors / expression of pro-inflammatory cytokines TNF-α, IL-6 and iNOS: RT-qPCR; for transcript levels of clock regulators and myogenic factors: mdx muscle; for expression of pro-inflammatory cytokines TNF-α, IL-6 and iNOS: mdx TA muscle, 3 daily doses; for reduction of creatine kinase (CK) levels, ex vivo TA explants: media of TA explant cultured 24 hours; for myofiber size distribution (cross section area) / Pax7 and CyclinD1 / new myofiber formation (eMyHC staining) / protein levels of clock regulators Bmal1, CLOCK, Rev-erbα / protein levels of myogenic factors: three daily doses; for Pax7 and CyclinD1 / new myofiber formation (eMyHC staining) / protein levels of clock regulators Bmal1, CLOCK, Rev-erbα / protein levels of myogenic factors: 50 μl of 2 μM
Description: FIGS. 17A-17C. In vivo effect of chlorhexidine on inducing regenerative repair of mdx dystrophic muscle. Based on the effects of CHX on promoting myogenic differentiation, we postulated that it may enhance myogenesis in vivo to promote regenerative repair in dystrophic muscle. […] FIG. 17A: Initial preliminary data was obtained from mice injected with one or two injections (one day apart) of CHX dissolved in DMSO. […] FIG. 17B: Next, we further tested the in vivo effect of CHX by three doses using PBS solution to avoid potential membrane damage by DMSO. […] FIG. 17C: Lastly, we examined the effect of triple CHX injection on clock and myogenic factor proteins in individual and individual mdx muscle. […] Variability observed between individual mice could be due to the in vivo injection.
FIG. 18. In vivo effect of chlorhexidine on inducing nascent myofiber regeneration of mdx dystrophic muscle. To directly examine effect of CHX in vivo injection on dystrophic muscle repair, we performed immunofluorescence staining of embryonic myosin heavy chain (eMyHC) to identify nascent regenerated myofiber using frozen TA cross sections from mdx mice following triple injections. Laminin staining was used to delineate basal lamina of myofiber.
FIGS. 43A-43D. CHX and CM002 promote regenerative myogenesis in dystrophic mdx mice. Based on the effect of CHX and CM002 on promoting regenerative myogenesis, we next tested whether they exert protective effects in dystrophic disease conditions via local intramuscular delivery in the mdx mice, an established model for muscular dystrophy.
FIGS. 44A-44D. CM002 and CHX stimulate satellite cell proliferative expansion and myogenic gene induction in mdx mice. As Pax7 and CyclinD1 levels were increased by CM002 and CHX in mdx TA, we directly examined the proliferation of satellite cells via EdU labeling with co-staining for Pax7 to identify satellite cells.
FIGS. 45A-45D. CM002 and CHX protects against dystrophic muscle damage in mdx mice. Given that local delivery of CHX and CM002 stimulated new myofiber formation to promote regenerative repair, we next examined whether these effects lead to protection against dystrophic injury. […] Most importantly, using ex vivo TA explants, we determined creatine kinase secretion from treated TA muscles as a direct indicator to assess muscle injury.
FIGS. 46A-46D. CHX and CM002 ameliorate inflammatory milieu of muscular dystrophy. Chronic inflammation in dystrophic muscle, due to the persistent muscle damage with sustained degeneration and regeneration cycles, is a significant component of the pathogenic characteristics of muscular dystrophy contributing to muscle wasting. We thus determined potential ameliorative effects of CHX and CM002 on muscle inflammation in the mdx mice. […] To further test whether the reduction of inflammation in muscle could be due to direct modulation of macrophage pro-inflammatory activities, we determined CHX and CM002 effects in primary bone marrow-derived macrophages.

[3] = U2OS Per2 luciferase reporter, recording 5-6 days, vs DMSO

Row | SMILES | TOPFlash reporter activity, basal condition (Wnt signaling activity) | TOPFlash reporter activity, Wnt-stimulated (Wnt signaling activity) | circadian period length [2, 3] | Modulatory Property [2] | Evans Blue Dye (EBD) positive area (muscle damage) (mdx mice) | amount of satellite cells (mdx mice) | satellite cell proliferation (EdU+/Pax7+ within Pax7+ pool) (mdx mice) | transcript levels of clock regulators and myogenic factors (mdx mice) | expression of pro-inflammatory cytokines TNF-α, IL-6 and iNOS (mdx mice) | reduction of creatine kinase (CK) levels, ex vivo TA explants (mdx mice) | myofiber size distribution (cross section area) (mdx mice) | Pax7 and CyclinD1 (mdx mice) | new myofiber formation (eMyHC staining) (mdx mice) | protein levels of clock regulators Bmal1, CLOCK, Rev-erbα (mdx mice) | protein levels of myogenic factors (mdx mice) | other results
1 | [H]/N=C(\N/C(=N/[H])NCCCCCCNC(=N)NC(=N)Nc1ccc(Cl)cc1)Nc1ccc(Cl)cc1 [CHX, chlorhexidine] | could induce Wnt signaling activity | could induce Wnt signaling activity | dose-dependent reduction of period length from 0.2 to 1 μM | clock activator | significantly reduced the areas stained positive for EBD | not significantly altered | sufficient to stimulate satellite cells proliferative expansion in dystrophic muscle to a similar degree | corresponding increase of their transcript levels | consistent reduction of expression of the pro-inflammatory cytokines examined | approximately 50% | striking left shift toward smaller myofibers | also induced | increased new myofiber formation | significantly elevated | elevated protein levels of myogenic factors | concentration causing cell death ([1]; with cytokine cocktail): ≥ 500 nM; toxicity in reporter cells ([2]; CHX at 5 and 10 μM): significant toxicity with reduced amplitude; effective concentration range, dose response of bioluminescence activity ([2]; Per2-Luc U2OS cells): 0.2 to 2 µM; clock cycling amplitude [2, 3]: at a low concentration of 0.2 μM induced clock amplitude, but not at any higher concentrations examined; protein expression of clock regulators (CLOCK, Rev-erbα) and myogenic factors (Myf5, Myogenin) (mdx mice; one or two injections, 50 μl of 2 μM in DMSO): stronger inductions by two doses; Pax7 protein (mdx mice; three doses in PBS, pooled samples): strongly induced; myogenic factors and Bmal1 protein in individual mdx muscle (mdx mice; triple injection, n=3): two of three mice injected with CHX demonstrated marked inductions of myogenic factors together with up-regulation of Bmal1 protein; eMyHC staining (nascent regenerated myofiber) (mdx mice; triple injections, vs PBS): robust eMyHC indicative of newly-regenerated myofibers
2 | CCCCCC/C=N/C(=N)NC(=N)Nc1ccc(Cl)cc1 [CM002] | sufficient to stimulate TOPFlash reporter activity to a similar degree as CHX | at lower concentrations at 0.1 and 0.2 μM were sufficient to induce TOPFlash reporter activity comparable to that of CHX at 0.5 μM | shortening of period length starting at 0.2 μM that was maintained at 2 μM; also recorded: dose-dependent effect on inducing clock period length shortening | strong clock activator | significantly reduced the areas stained positive for EBD | not significantly altered | sufficient to stimulate satellite cells proliferative expansion in dystrophic muscle to a similar degree | corresponding increase of their transcript levels | consistent reduction of expression of the pro-inflammatory cytokines examined | ~35% | striking left shift toward smaller myofibers | also induced | increased new myofiber formation | significantly elevated with stronger effect by CM002 | elevated protein levels of myogenic factors | concentration up to which cells remain viable ([1]; mdx, mouse): up to 1 μM; cell death at 2.5 μM ([1]; mdx, mouse, 2.5 μM): significantly less cell death at 2.5 μM; LumiCycle Result: Clock activity, Amplitude ([2]; Table 1, U2OS Per2::dLuc): Amplitude: Increased; LumiCycle Result: Clock activity, Period ([2]; Table 1, U2OS Per2::dLuc): Period: Shortening; LumiCycle Result: Clock activity (overall) ([2]; U2OS Per2::dLuc, CHX analogs screened): strongest effect on activating circadian clock function
